Article PMC12457078, “Inhibition of soluble epoxide hydrolase in endotoxin induced pig lung injury” (Frontiers in Pharmacology, 2025)
Values joined by “and” are separate entries in the source; they are usually repeats but may differ in a detail not shown here. Equal entries are not always repeated.

Tested on: sEH
Assay: oxylipin analysis, epoxide/diol ratios (target engagement)
Assay type: in vivo, pig
Parameters: 14,15-DiHETE: unit not given beside the values; 12,13-DiHOME / 9,10-DiHODE / 11,12-DiHETrE / 14,15-DiHETrE / 10,11-DiHDPE / 19,20-DiHDPE / 13-HODE / 5-HETE / 11-HETE / 12-HETE / 5-HEPE / 9(10)-EpOME / 12(13)-EpOME / EKODE / 11(12)-EpETE: unit not given here
Experimental: All animals were monitored with pulse oximetry, heart rate, ECG, systemic arterial blood pressure (ABP), pulmonary arterial pressure (PAP), central venous pressure (CVP) temperature, tidal volumes, respiratory rate and end tidal carbon dioxide. At baseline, and at 3 h, 6 h and at the end of the experiment, pulmonary capillary wedge pressure (PCWP) was measured together with arterial and venous blood gas analyses, as well as cardiac output calculations. Routine chemistry, including creatinine, bilirubin, glucose, electrolytes were collected at baseline and at the end of the experiment (Vetscan VS2®, Abaxis, Griesheim, Germany). Blood samples for measurement of AEPU plasma concentrations, as well as oxylipins (i.e., EpETrEs and their DiHETrE corresponding diols as well as related compounds with other polyunsaturated fatty acid precursors), were collected at baseline, 6 h and at the end of the experiment.
This meant nine subjects in each group to achieve 90% power of detecting a difference of this size given α = 0.05. Anticipating that not all experiments would reach completion, we used a sample size of 22. The results were analyzed using SPSS Statistics, version 24 (IBM Corp., Armonk, N.Y., United States). Normality was examined with the Shapiro-Wilk test, together with examination of histograms of data. Continuous variables were compared using Student’s t-test or Mann Whitney U test, as appropriate. Categorical variables were compared using Fischer’s exact test. Statistical significance was set at α < 0.05. Oxylipins with at least 80% of observations above limit of detection at both timepoints were included in pairwise comparisons of ratios and fold-change evaluations where observations below limit of detection (LOD) were substituted with 0.5 x LOD.

[1] = animal 22, time 6, sample Schwein38

## CCOCCOCCOCCCCCNC(=O)NC12CC3CC(CC(C3)C1)C2 [sEH-i]
[1]
  8(9)-EpETrE: <LOD
  8,9-DiHETE: <LOD
  8,9-DiHETrE: 0.0757
  8-HETE: 0.0546
  9(10)-EpODE: 0.22
  9(10)-EpOME: 0.65
  9,10,13-TriHOME: 4.88
  9,10-DiHODE: 0.22
  9,10-DiHOME: 1.64
  9,12,13-TriHOME: <LOD
  9-HETE: <LOD
  9-HODE: 3.67
  9-HOTrE: 0.7165
  9-oxo-ODE: <LOD
  10(11)-EpDPE: <LOD
  10,11-DiHDPE: 0.03
  11(12)-EpETE: 0.07931
  11(12)-EpETrE: 0.0369
  11,12-DiHETE: 0.0372
  11,12-DiHETrE: 0.80
  11-HETE: 0.10
  12(13)-EpODE: 0.32
  12(13)-EpOME: 1.76
  12,13-DiHODE: 0.31
  12,13-DiHOME: 3.15
  12-HEPE: 0.0345
  12-HETE: 0.2294
  12-oxo-ETE: 2.84
  13(14)-EpDPE: <LOD
  13,14-DiHDPE: 0.13
  13-HODE: 19.79
  13-HOTrE: 1.01
  13-oxo-ODE: <LOD
  14(15)-EpETE: <LOD
  14(15)-EpETrE: 0.09
  14,15-DiHETrE: 1.47
  15(16)-EpODE: 4.31
  15,16-DiHODE: 14.18
  15-HEPE: <LOD
  15-HETE: 0.27
  15-HETrE: 0.12
  15-oxo-ETE: 0.03
  16(17)-EpDPE: <LOD
  16,17-DiHDPE: 0.28
  17(18)-EpETE: <LOD
  17,18-DiHETE: 1.29
  17-HDoHE: <LOD
  19(20)-EpDPE: <LOD
  19,20-DiHDPE: 1.67
  20-HETE: 0.10
  EKODE: 0.30
  LTB4: <LOD
  PGD2: <LOD
  PGE2: <LOD
  PGF2a: 0.18
  Resolvin D1: <LOD
  Resolvin D2: <LOD
  TXB2: 0.45
Animal 22, time 6, sample Schwein38, high blanks
  14,15-DiHETE: 0.2142
Time 0, individual pigs
  5(6)-EpETrE: <LOD
  5,6-DiHETrE: <LOD
  5-HEPE: 0.12 and 0.10 and 0.0352 and 0.0647 and 0.04
  5-HETE: 0.3505 and 0.4442 and 0.2569 and 0.292 and 0.2018
  5-oxo-ETE: <LOD and 0.13 and 0.12
  7(8)-EpDPE: <LOD
  7,8-DiHDPE: <LOD
  8(9)-EpETE: <LOD
  8(9)-EpETrE: <LOD
  8,9-DiHETE: <LOD
  8,9-DiHETrE: 0.05 and 0.0422 and <LOD and 0.06
  8-HETE: 0.06 and 0.08 and 0.053 and 0.0429
  9(10)-EpODE: 0.38 and 0.25 and <LOD
  9(10)-EpOME: 0.98 and 0.51 and 0.65 and 0.99 and 0.62
  9,10-DiHODE: 0.22 and 0.21 and 0.10 and 0.16 and 0.12
  9,10-DiHOME: 1.61 and 1.57 and 0.78 and 1.46 and 0.91
  9-HETE: <LOD
  9-HODE: 8.25 and 8.10 and 3.23 and 6.40 and 4.24
  9-HOTrE: 1.27 and 1.28 and 0.79 and 0.81 and 0.6856
  9-oxo-ODE: <LOD
  10(11)-EpDPE: <LOD
  10,11-DiHDPE: <LOD
  11(12)-EpETE: 0.1253 and 0.08781 and 0.1311 and 0.1265 and 0.1028
  11(12)-EpETrE: <LOD and 0.02 and 0.0347 and 0.03
  11,12-DiHETE: <LOD and 0.0219
  11,12-DiHETrE: 0.32 and 0.22 and 0.18 and 0.46 and 0.23
  11-HETE: 0.13 and 0.12 and 0.05 and 0.0453
  12(13)-EpODE: 0.71 and 0.48 and <LOD and 0.61 and 0.44
  12(13)-EpOME: 3.24 and 1.63 and 2.31 and 2.28 and 1.75
  12,13-DiHODE: 0.45 and 0.48 and 0.25 and 0.29
  12,13-DiHOME: 6.90 and 6.98 and 3.85 and 4.66 and 3.09
  12-HEPE: 0.04 and <LOD and 0.0173
  12-HETE: 0.1828 and 0.38 and 0.09618 and 0.1256 and 0.03983
  12-oxo-ETE: <LOD
  13(14)-EpDPE: <LOD
  13,14-DiHDPE: 0.05 and 0.018 and <LOD and 0.06 and 0.0275
  13-HODE: 29.61 and 29.96 and 13.26 and 18.81 and 12.94
